Test results reported in ChEMBL document CHEMBL1201862, “PubChem BioAssay data set” (2004).
Calls of active or inactive are those of the source.

Key:
[1] = biological target: Cyclin-dependent kinase 1 (Homo sapiens, UniProt P06493); format: functional;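 note: Kinome-wide panel profiling, with the target listed as panel member CDC2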
[2] = biological target: Serine/threonine-protein kinase pim-2 (Homo sapiens, UniProt Q9P1W9); format: functional;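 note: value comes from a broad kinase panel profiling study in which PIM2 was one of the panel members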
[3] = biological target: Phosphorylase b kinase gamma catalytic chain, liver/testis isoform (Homo sapiens, UniProt P15735); format: functional;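 note: PHKG2 measured as one member of a kinome-wide kinase panel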
[4] = HepG2 cell cytotoxicity, dose response, cytotoxicity control, plate reader, cherry-pick, antagonist series (AID 743416); format: functional, cell-based
[5] = biological target: T1, Tyrosine-protein phosphatase non-receptor type 7 (Homo sapiens, UniProt P35236); format: functional
T1 sequence (P35236 whole entry): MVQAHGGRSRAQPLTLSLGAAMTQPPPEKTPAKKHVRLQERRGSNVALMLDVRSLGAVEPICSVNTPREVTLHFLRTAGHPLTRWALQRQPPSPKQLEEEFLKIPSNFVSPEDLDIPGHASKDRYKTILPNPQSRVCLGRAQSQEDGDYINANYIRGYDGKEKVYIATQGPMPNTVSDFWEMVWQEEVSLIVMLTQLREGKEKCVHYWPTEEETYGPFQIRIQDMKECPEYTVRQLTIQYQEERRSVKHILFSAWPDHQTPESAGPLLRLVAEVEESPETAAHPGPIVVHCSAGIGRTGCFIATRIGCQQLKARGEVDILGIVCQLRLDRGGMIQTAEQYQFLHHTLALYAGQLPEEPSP

Chain of Phosphorylase b kinase gamma catalytic chain, liver/testis isoform (P15735 whole entry, canonical isoform): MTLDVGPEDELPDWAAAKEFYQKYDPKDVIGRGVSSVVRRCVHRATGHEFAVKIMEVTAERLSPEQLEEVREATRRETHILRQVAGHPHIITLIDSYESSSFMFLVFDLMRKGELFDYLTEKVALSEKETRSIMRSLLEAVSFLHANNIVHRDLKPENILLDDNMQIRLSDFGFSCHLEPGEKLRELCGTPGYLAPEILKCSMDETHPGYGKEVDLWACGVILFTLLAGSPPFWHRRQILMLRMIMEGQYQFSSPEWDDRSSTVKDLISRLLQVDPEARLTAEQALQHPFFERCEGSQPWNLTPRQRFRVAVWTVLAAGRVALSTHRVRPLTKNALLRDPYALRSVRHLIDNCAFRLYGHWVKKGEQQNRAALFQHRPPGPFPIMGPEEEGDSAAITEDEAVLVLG
Chain of Cyclin-dependent kinase 1 (P06493 whole entry): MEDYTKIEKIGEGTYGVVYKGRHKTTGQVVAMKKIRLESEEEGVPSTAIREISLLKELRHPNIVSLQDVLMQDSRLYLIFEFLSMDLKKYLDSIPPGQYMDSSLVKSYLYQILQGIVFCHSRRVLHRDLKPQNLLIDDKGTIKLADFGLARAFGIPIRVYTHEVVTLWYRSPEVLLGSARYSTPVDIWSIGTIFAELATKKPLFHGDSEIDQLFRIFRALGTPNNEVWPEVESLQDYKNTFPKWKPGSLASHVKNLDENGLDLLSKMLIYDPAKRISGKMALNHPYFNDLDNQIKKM
Chain of Serine/threonine-protein kinase pim-2 (Q9P1W9 whole entry, canonical isoform): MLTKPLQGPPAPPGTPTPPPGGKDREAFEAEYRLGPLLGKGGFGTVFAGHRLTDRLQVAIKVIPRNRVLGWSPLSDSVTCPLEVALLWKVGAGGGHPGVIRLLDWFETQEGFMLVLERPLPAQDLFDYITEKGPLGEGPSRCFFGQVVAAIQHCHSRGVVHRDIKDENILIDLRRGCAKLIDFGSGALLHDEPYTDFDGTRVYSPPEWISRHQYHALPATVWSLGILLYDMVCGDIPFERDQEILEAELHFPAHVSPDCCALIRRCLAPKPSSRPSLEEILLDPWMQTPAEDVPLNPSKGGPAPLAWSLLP

| Compound | Ki [1] | Ki [2] | Ki [3] | AC50 [4] | IC50 [5] |
| --- | --- | --- | --- | --- | --- |
| COc1cc2ncn(-c3cc(OCc4ccccc4C(F)(F)F)c(C(N)=O)s3)c2cc1OC [GW843682X] | > 7.94 µM (inactive) | > 1.58 µM (inactive) | > 5.01 µM (inactive) |  |  |
| CCCc1nc2c(=O)n(C)c(=O)nc-2n(C)n1 |  |  |  | 3.39 µM (active) | < 1.24 µM (active) |
